In patent US7635701B2 (Glaxo Group Limited, priority 2002, dated 2009):

Experiments:
[1] = target: human cannabinoid CB2 receptor (Homo sapiens, UniProt P34972); test: Cannabinoid CB2 receptor agonist activity in yeast cells (FDGlu fluorescence)
[2] = Particle size analysis on Lecotrac laser particle size analyser, pre and post nanomilling; type: physicochemical; details: for Post-nanomilling 50% percentile particle size / Post-nanomilling 95% percentile particle size: after wet milling in aqueous 1.5% HPMC with YTZ beads; for Pre-nanomilling 50% percentile particle size / Pre-nanomilling 95% percentile particle size: starting material before nanomilling
Description: The particle size of the solid particles of compound (1) may be determined by laser diffraction. A suitable machine for determining particle size by laser diffraction is a Lecotrac laser particle size analyser, using an HELOS optical bench fitted with a QUIXEL dispersion unit.
2.5 g of compound of example 176 was weighed into a […] centrifuge tube. 25 ml of 0.3 mm yttrium zirconium (YTZ) ceramic milling beads (Manufacturer: Tosoh, Japan; Supplier: Glen Creston Ltd., batch no. 5280130030)”) was weighed into a 50 ml milling pot. 22.5 ml of aqueous 1.5% HPMC was measured with a measuring cylinder into a 100 ml beaker. This solution was homogenised for 3 seconds with an Ultra Turrax T25 homogeniser. Approximately 200 mg of the 2.5 g of the compound was added to the HPMC solution and homogenised at the lowest speed setting until the powder was wetted. This was repeated until all the compound had been added. The speed of the homogeniser was then increased to maximum and the suspension was homogenised for a further 3 minutes. This suspension was allowed to stand for 30 minutes in order to allow some of the foam to disperse. The suspension was then poured into the 50 ml pot containing the YTZ milling beads, stirring to release any trapped air. The lid to the pot was then fitted and the pot sealed with some Nesco film. This procedure was repeated for a second 50 ml nanomilling pot and both pots were placed on a Retsch mill and milled for a total of 8 hours.
The milling pots were removed from the Retsch mill and left to cool and for the foam to disperse overnight. In the morning the suspension and bead mixture was passed through a 200μ, 40 mm diameter screen. The contents from each 50 ml pot was washed with aqueous 1.5% HPMC: 10% of the original suspension volume (i.e. 2.5 ml). The suspension from the 2 pots was combined to make 1 batch. The suspension obtained from the method above was named the concentrate.
A particle size analysis was carried out on the Lecotrac laser particle size analyser. The results are shown in Table B along with the results from the starting material for comparison:
Compounds of Examples 19, 34, 194, 217, 228, 247 were nanomilled on a 1 g scale using the process described above and the particle size analysed pre and post nanomilling.

Sequence of human cannabinoid CB2 receptor (P34972 whole entry): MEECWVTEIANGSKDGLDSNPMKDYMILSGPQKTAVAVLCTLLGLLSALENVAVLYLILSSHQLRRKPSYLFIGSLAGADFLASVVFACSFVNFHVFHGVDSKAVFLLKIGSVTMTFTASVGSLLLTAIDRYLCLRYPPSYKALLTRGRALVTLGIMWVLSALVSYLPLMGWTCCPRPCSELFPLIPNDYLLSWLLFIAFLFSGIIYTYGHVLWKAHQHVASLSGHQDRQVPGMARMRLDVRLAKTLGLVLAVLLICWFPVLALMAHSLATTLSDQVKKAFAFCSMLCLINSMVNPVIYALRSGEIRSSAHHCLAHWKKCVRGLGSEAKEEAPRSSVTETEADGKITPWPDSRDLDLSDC

| Compound | EC50 [1] [nM] | Post-nanomilling 50% percentile particle size [2] [μ] | Post-nanomilling 95% percentile particle size [2] [μ] | Pre-nanomilling 50% percentile particle size [2] [μ] | Pre-nanomilling 95% percentile particle size [2] [μ] |
| --- | --- | --- | --- | --- | --- |
| O=C(NCC1CCCO1)c1cnc(Nc2cccc(F)c2)nc1C(F)(F)F (stereo in doubt) [Example 73, 2-(3-Fluoro-phenylamino)-4-trifluoromethyl-pyrimidine-5-carboxylic acid [(R)-1-(tetrahydro-furan-2-yl)methyl]-amide] | 300 to 1000 | – | – | – | – |
| N#Cc1ccc(Nc2ncc(C(=O)NCC3CCOCC3)c(C(F)(F)F)n2)cc1Cl [Ex 217, 2-(4-Cyano-3-chloro-phenylamino)-4-trifluoromethyl-pyrimidine-5-carboxylic acid (tetrahydro-pyran-4-ylmethyl)-amide] | – | 0.34 | 1.30 | 5.70 | 34.9 |
| O=C(NCC1CCCC1)c1cnc(Nc2ccc(F)c(Cl)c2)nc1C(F)(F)F [Ex 247, 2-(3-Chloro-4-fluoro-phenylamino)-4-trifluoromethyl-pyrimidine-5-carboxylic acid cyclopentylmethyl-amide] | – | 0.64 | 2.53 | 13.2 | 68.7 |
| O=C(NCC1CCCCC1)c1cnc(Nc2ccccc2)nc1C(F)(F)F [Example 5] | 20 to 300 | – | – | – | – |
| O=C(c1cnc(Nc2cccc(Br)c2)nc1C(F)(F)F)N1CCCCC1 [Example 12] | 20 to 300 | – | – | – | – |
| O=C(NCC1CCCCC1)c1cnc(Nc2cccc(F)c2)nc1C(F)(F)F [Example 19, 2-(3-Fluorophenylamino)-4-trifluoromethylpyrimidine-5-arboxylic acid cyclohexylmethyl-amide] | – | 0.40 | 1.40 | 5.22 | 25.5 |
| O=C(NC1CCSCC1)c1cnc(Nc2cccc(Cl)c2Cl)nc1C(F)(F)F [Example 81, 2-(2,3-Diclorophenylamino)-4-trifluoromethyl-pyrimidine-5-carboxylic acid (tetrahydro-thiopyran-4-yl)-amide] | 300 to 1000 | – | – | – | – |
| O=C(NCC1(O)CCCCC1)c1cnc(Nc2cccc(F)c2)nc1C(F)(F)F [Example 86, 2-(3-Fluoropheny1-amino)4-trifluoro-methyl-pyrimidine-5-carboxylic acid(1-hydroxy-cyclohexyl-methyl)amide] | 300 to 1000 | – | – | – | – |
| N#Cc1ccc(Nc2ncc(C(=O)NCC3CCCC3)c(C(F)(F)F)n2)cc1 [Example 176, 2-(4-Cyanophenylamino)-4-trifluoromethyl-pyrimidine-5-carboxylic acid cyclopentylmethyl-amide] | – | 0.33 | 1.78 | 13.15 | 68.7 |
| N#Cc1ccc(Nc2ncc(C(=O)NCC3CCC3)c(C(F)(F)F)n2)cc1Cl [Example 197] | 20 to 300 | – | – | – | – |
| CC(C)CNC(=O)c1cnc(Nc2cccc(Cl)c2)nc1C(F)(F)F [Example 210] | 20 to 300 | – | – | – | – |
